The values that follow come from patent US9102752B2, “Peptide vaccine for prevention and immunotherapy of dementia of the Alzheimer's type” (United Biomedical, Inc., priority 2013, dated 2015).

For assay [1], the system named is anti-Aβ antibodies in sera of vaccinated patients. As to the kind of experiment: Epitope mapping, competitive binding inhibition EIA with patient sera (10-mer peptides, IC50). As to conditions: for Epitope mapping, fine specificity analysis, serum of subject P101: serum 16 wpi of vaccinated patient P101; for Epitope mapping, fine specificity analysis, serum of subject P102: serum 16 wpi of vaccinated patient P102; for Epitope mapping, fine specificity analysis, serum of subject P103: serum 16 wpi of vaccinated patient P103; for Epitope mapping, fine specificity analysis, serum of subject P104: serum 16 wpi of vaccinated patient P104; for Epitope mapping, fine specificity analysis, serum of subject P105: serum 16 wpi of vaccinated patient P105; for Epitope mapping, fine specificity analysis, serum of subject P106: serum 16 wpi of vaccinated patient P106; for Epitope mapping, fine specificity analysis, serum of subject P107: serum 16 wpi of vaccinated patient P107; for Epitope mapping, fine specificity analysis, serum of subject P108: serum 16 wpi of vaccinated patient P108; for Epitope mapping, fine specificity analysis, serum of subject P109: serum 16 wpi of vaccinated patient P109; for Epitope mapping, fine specificity analysis, serum of subject P201: serum 16 wpi of vaccinated patient P201; for Epitope mapping, fine specificity analysis, serum of subject P202: serum 16 wpi of vaccinated patient P202; for Epitope mapping, fine specificity analysis, serum of subject P203: serum 16 wpi of vaccinated patient P203; for Epitope mapping, fine specificity analysis, serum of subject P204: serum 16 wpi of vaccinated patient P204; for Epitope mapping, fine specificity analysis, serum of subject P205: serum 16 wpi of vaccinated patient P205; for Epitope mapping, fine specificity analysis, serum of subject P206: serum 16 wpi of vaccinated patient P206; for Epitope mapping, fine specificity analysis, serum of subject P207: serum 16 wpi of vaccinated patient P207; for Epitope mapping, fine specificity analysis, serum of subject P208: serum 16 wpi of vaccinated patient P208; for Epitope mapping, fine specificity analysis, serum of subject P209: serum 16 wpi of vaccinated patient P209; for Epitope mapping, fine specificity analysis, serum of subject P210: serum 16 wpi of vaccinated patient P210. More on the design: species or system human; Epitope mapping, fine specificity analysis, serum of subject P210: unit not given here.

The subject of assay [2] is anti-Aβ antibodies in macaque antisera. As to the kind of experiment: Specificity analysis (10-mer peptide ELISA) of antisera from Cynomolgus macaques. The format is binding. A general note: An ELISA detects its analyte on a solid surface through an enzyme-linked reagent.
[3] abbreviates: antisera of macaques given UBI AD Vaccine 150 μg/dose, 9 WPI.
[4] abbreviates: antisera of macaques given UBI AD Vaccine 150 μg/dose, 15 WPI.
Where [5] appears, read: antisera of macaques given UBI AD Vaccine 750 μg/dose, 9 WPI.
Setting [6] is: antisera of macaques given UBI AD Vaccine 750 μg/dose, 15 WPI.

On to “20 (RHDSGYEVHH; PEPTIDE (1)..(10) Abeta 5-14 or APP 770(R676-H685); listed as Homo sapiens) [compound 20]”, for which, in assay [1], the “Epitope mapping, fine specificity analysis, serum of subject P101” value (“Epitope mapping … of subject P101” for short) is on record as 0; the “Epitope mapping, fine specificity analysis, serum of subject P102” value (“Epitope mapping … of subject P102” for short) stood at 0; the “Epitope mapping, fine specificity analysis, serum of subject P103” value (“Epitope mapping … of subject P103” for short) worked out at 0; the “Epitope mapping, fine specificity analysis, serum of subject P104” value (“Epitope mapping … of subject P104” for short) stood at 0. Besides, in assay [1], the “Epitope mapping, fine specificity analysis, serum of subject P105” value (“Epitope mapping … of subject P105” for short) was found to be 0; the “Epitope mapping, fine specificity analysis, serum of subject P106” value (“Epitope mapping … of subject P106” for short) came to 0; the “Epitope mapping, fine specificity analysis, serum of subject P107” value (“Epitope mapping … of subject P107” for short) is listed as 0; the “Epitope mapping, fine specificity analysis, serum of subject P108” value (“Epitope mapping … of subject P108” for short) came to 0. Further, in assay [1], the “Epitope mapping, fine specificity analysis, serum of subject P109” value (“Epitope mapping … of subject P109” for short) was 0; the “Epitope mapping, fine specificity analysis, serum of subject P201” value (“Epitope mapping … of subject P201” for short) turned out to be 0; the “Epitope mapping, fine specificity analysis, serum of subject P202” value (“Epitope mapping … of subject P202” for short) was determined as 0; the “Epitope mapping, fine specificity analysis, serum of subject P203” value (“Epitope mapping … of subject P203” for short) is 0. In addition, in assay [1], the “Epitope mapping, fine specificity analysis, serum of subject P204” value (“Epitope mapping … of subject P204” for short) is 0; the “Epitope mapping, fine specificity analysis, serum of subject P205” value (“Epitope mapping … of subject P205” for short) is on record as 0; the “Epitope mapping, fine specificity analysis, serum of subject P206” value (“Epitope mapping … of subject P206” for short) amounted to 0; the “Epitope mapping, fine specificity analysis, serum of subject P207” value (“Epitope mapping … of subject P207” for short) is on record as 0. In assay [1], the “Epitope mapping, fine specificity analysis, serum of subject P208” value (“Epitope mapping … of subject P208” for short) came to 0; the “Epitope mapping, fine specificity analysis, serum of subject P209” value (“Epitope mapping … of subject P209” for short) is recorded as 0; the “Epitope mapping, fine specificity analysis, serum of subject P210” value (“Epitope mapping … of subject P210” for short) amounted to 0. In addition, the “Reactivity of antisera with peptide (specificity analysis ELISA)” value (“Reactivity of antisera with peptide” for short) in assay [2] (setting [3]) was determined as 0.296. Besides, the “Reactivity of antisera with peptide” value in assay [2] (setting [4]) is 0.400. In addition, the “Reactivity of antisera with peptide” value in assay [2] (setting [5]) amounted to 0.453. Besides, the “Reactivity of antisera with peptide” value in assay [2] (setting [6]) amounted to 0.461.
Take “21 (HDSGYEVHHQ; PEPTIDE (1)..(10) Abeta 6-15 or APP 770(H677-Q686); listed as Homo sapiens) [compound 21]”: in assay [1], the “Epitope mapping … of subject P101” value came out at 0; the “Epitope mapping … of subject P102” value was determined as 0; the “Epitope mapping … of subject P103” value is 0; the “Epitope mapping … of subject P104” value was 0. In assay [1], the “Epitope mapping … of subject P105” value is on record as 0; the “Epitope mapping … of subject P106” value is reported as 0; the “Epitope mapping … of subject P107” value came out at 0; the “Epitope mapping … of subject P108” value stood at 0. In assay [1], the “Epitope mapping … of subject P109” value is 0; the “Epitope mapping … of subject P201” value worked out at 0; the “Epitope mapping … of subject P202” value was 0; the “Epitope mapping … of subject P203” value came to 0. Besides, in assay [1], the “Epitope mapping … of subject P204” value is recorded as 0; the “Epitope mapping … of subject P205” value worked out at 0; the “Epitope mapping … of subject P206” value is recorded as 0; the “Epitope mapping … of subject P207” value came out at 0. Further, in assay [1], the “Epitope mapping … of subject P208” value turned out to be 0; the “Epitope mapping … of subject P209” value was 0; the “Epitope mapping … of subject P210” value is 0. Moreover, in assay [2] (setting [3]), the “Reactivity of antisera with peptide” value is recorded as 0.266. Further, the “Reactivity of antisera with peptide” value in assay [2] (setting [4]) turned out to be 0.494. Besides, the “Reactivity of antisera with peptide” value in assay [2] (setting [5]) is 0.419. Also, the “Reactivity of antisera with peptide” value in assay [2] (setting [6]) is 0.332.
On to “22 (DSGYEVHHQK; PEPTIDE (1)..(10) Abeta 7-16 or APP 770(D678-K687); listed as Homo sapiens) [compound 22]”, for which, in assay [1], the “Epitope mapping … of subject P101” value was found to be 214; the “Epitope mapping … of subject P102” value is recorded as 0; the “Epitope mapping … of subject P103” value stood at 0; the “Epitope mapping … of subject P104” value was 0. Further, in assay [1], the “Epitope mapping … of subject P105” value is recorded as 0; the “Epitope mapping … of subject P106” value stood at 0; the “Epitope mapping … of subject P107” value came to 0; the “Epitope mapping … of subject P108” value is listed as 0. Moreover, in assay [1], the “Epitope mapping … of subject P109” value turned out to be 0; the “Epitope mapping … of subject P201” value was found to be 0; the “Epitope mapping … of subject P202” value is given as 0; the “Epitope mapping … of subject P203” value is 0. For the same substance, in assay [1], the “Epitope mapping … of subject P204” value worked out at 0; the “Epitope mapping … of subject P205” value was found to be 0; the “Epitope mapping … of subject P206” value was 0; the “Epitope mapping … of subject P207” value is given as 0. Moreover, in assay [1], the “Epitope mapping … of subject P208” value was 0; the “Epitope mapping … of subject P209” value turned out to be 0; the “Epitope mapping … of subject P210” value is listed as 0. For the same substance, the “Reactivity of antisera with peptide” value in assay [2] (setting [3]) came out at 0.270. For the same substance, in assay [2] (setting [4]), the “Reactivity of antisera with peptide” value is reported as 0.289. Moreover, the “Reactivity of antisera with peptide” value in assay [2] (setting [5]) stood at 0.405. Besides, the “Reactivity of antisera with peptide” value in assay [2] (setting [6]) is recorded as 0.197.
For “23 (SGYEVHHQKL; PEPTIDE (1)..(10) Abeta 8-17 or APP 770(S679-L688); listed as Homo sapiens) [compound 23]”, in assay [1], the “Epitope mapping … of subject P101” value was determined as 0; the “Epitope mapping … of subject P102” value was determined as 0; the “Epitope mapping … of subject P103” value came out at 0; the “Epitope mapping … of subject P104” value is reported as 0. For the same substance, in assay [1], the “Epitope mapping … of subject P105” value is 0; the “Epitope mapping … of subject P106” value came out at 0; the “Epitope mapping … of subject P107” value stood at 0; the “Epitope mapping … of subject P108” value was determined as 0. In assay [1], the “Epitope mapping … of subject P109” value was 0; the “Epitope mapping … of subject P201” value is listed as 0; the “Epitope mapping … of subject P202” value is 0; the “Epitope mapping … of subject P203” value is given as 0. In assay [1], the “Epitope mapping … of subject P204” value is listed as 0; the “Epitope mapping … of subject P205” value was 0; the “Epitope mapping … of subject P206” value was 0; the “Epitope mapping … of subject P207” value is recorded as 0. In assay [1], the “Epitope mapping … of subject P208” value is on record as 0; the “Epitope mapping … of subject P209” value stood at 0; the “Epitope mapping … of subject P210” value was 0. For the same substance, the “Reactivity of antisera with peptide” value in assay [2] (setting [3]) was found to be 0.097. The “Reactivity of antisera with peptide” value in assay [2] (setting [4]) stood at 0.071. In addition, the “Reactivity of antisera with peptide” value in assay [2] (setting [5]) turned out to be 0.077. Also, in assay [2] (setting [6]), the “Reactivity of antisera with peptide” value amounted to 0.082.
